The target in test [1] is Diamine oxidase (Sus scrofa). Nature of the test: Tested for ability to competitively inhibit hog kidney diamine oxidase (DAO) in a spectrometric assay.
Test [2] concerns the target Diamine oxidase (Sus scrofa). The description is as above. The source holds these as a separate data set.

Broadly, the Ki is the dissociation constant of the complex between target and ligand, obtained from inhibition or displacement. Higher therefore signals lower affinity. With `NCC=Cc1cnc[nH]1`, the Ki in test [1] was found to be 170 nM; in test [2], 200 nM.

In test [1], `C=C(CN)c1cnc[nH]1` [2-(1H-Imidazol-4-yl)-allylamine] gave a Ki of 7100 nM.

`NCC#Cc1cnc[nH]1` [3-(1H-Imidazol-4-yl)-prop-2-ynylamine] had a Ki in test [1] of 1700 nM.

For the origin of these results see BindingDB's records for doi:10.1016/S0960-894X(01)80909-4 (1993).
